Test results as given in PubChem BioAssay AID2060499 (Molecular Pharmacology Branch, DTP, NCI, 2025).

Tested on: 777334-354-R2-J4-PDC tumor spheroids with HUVEC/MSC, viability
Experiment: Anticancer human tumor 777334-354-R2-J4-PDC patient-derived pancreatic adenocarcinoma cell line growth inhibition [GQUAD]
Settings: for IC50: curve of first compound; for viability, T/C: stronger effect = lower value
In short: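 Viability of tumor cells grown as complex spheroids with endothelial and stromal cells, exposed to drug combinations. Top concentration at or near clinical Cmax (else 10 microM), diluted in half-log increments.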

[1] = second compound 0.0316 µM, first compound 0.0316 µM
[2] = second compound 0.0316 µM, first compound 0.1 µM
[3] = second compound 0.0316 µM, first compound 0.316 µM
[4] = second compound 0.0316 µM, first compound 1 µM
[5] = second compound 0.0316 µM, first compound 3.16 µM
[6] = second compound 0.0316 µM, first compound 10 µM
[7] = second compound 0.1 µM, first compound 0.0316 µM
[8] = second compound 0.1 µM, first compound 0.1 µM
[9] = second compound 0.1 µM, first compound 0.316 µM
[10] = second compound 0.1 µM, first compound 1 µM
[11] = second compound 0.1 µM, first compound 3.16 µM
[12] = second compound 0.1 µM, first compound 10 µM
[13] = second compound 0.316 µM, first compound 0.0316 µM
[14] = second compound 0.316 µM, first compound 0.1 µM
[15] = second compound 0.316 µM, first compound 0.316 µM
[16] = second compound 0.316 µM, first compound 1 µM
[17] = second compound 0.316 µM, first compound 3.16 µM
[18] = second compound 0.316 µM, first compound 10 µM
[19] = second compound 1 µM, first compound 0.0316 µM
[20] = second compound 1 µM, first compound 0.1 µM
[21] = second compound 1 µM, first compound 0.316 µM
[22] = second compound 1 µM, first compound 1 µM
[23] = second compound 1 µM, first compound 3.16 µM
[24] = second compound 1 µM, first compound 10 µM
[25] = second compound 3.16 µM, first compound 0.0316 µM
[26] = second compound 3.16 µM, first compound 0.1 µM
[27] = second compound 3.16 µM, first compound 0.316 µM
[28] = second compound 3.16 µM, first compound 1 µM
[29] = second compound 3.16 µM, first compound 3.16 µM
[30] = second compound 3.16 µM, first compound 10 µM
[31] = second compound 10 µM, first compound 0.0316 µM
[32] = second compound 10 µM, first compound 0.1 µM
[33] = second compound 10 µM, first compound 0.316 µM
[34] = second compound 10 µM, first compound 1 µM
[35] = second compound 10 µM, first compound 3.16 µM
[36] = second compound 10 µM, first compound 10 µM
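Further: spheroids exposed to compounds for 7 days before readout.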

CC(=O)O[C@H]1C(=O)[C@@]2(C)[C@H]([C@H](OC(=O)c3ccccc3)[C@]3(O)C[C@H](OC(=O)[C@H](O)[C@@H](NC(=O)c4ccccc4)c4ccccc4)C(C)=C1C3(C)C)[C@]1(OC(C)=O)CO[C@@H]1C[C@@H]2O + Cc1[nH]c2ccc(F)cc2c1-c1nc2c3cccnc3c3ncccc3c2[nH]1
IC50 (second compound 0.0316 µM): 291 nM
IC50 (second compound 0.1 µM): 305 nM
IC50 (second compound 0.316 µM): 222 nM
IC50 (second compound 1 µM): 240 nM
IC50 (second compound 3.16 µM): < 31.6 nM
IC50 (second compound 10 µM): < 31.6 nM
viability, T/C [1]: 97.1%
viability, T/C [2]: 66%
viability, T/C [3]: 49.7%
viability, T/C [4]: 41.1%
viability, T/C [5]: 51.8%
viability, T/C [6]: 43.3%
viability, T/C [7]: 94.9%
viability, T/C [8]: 59.9%
viability, T/C [9]: 48.4%
viability, T/C [10]: 46.4%
viability, T/C [11]: 49.6%
viability, T/C [12]: 47.6%
viability, T/C [13]: 81.4%
viability, T/C [14]: 59.5%
viability, T/C [15]: 45.6%
viability, T/C [16]: 45.2%
viability, T/C [17]: 47.5%
viability, T/C [18]: 44.1%
viability, T/C [19]: 70.9%
viability, T/C [20]: 58.5%
viability, T/C [21]: 44.2%
viability, T/C [22]: 45.3%
viability, T/C [23]: 44.6%
viability, T/C [24]: 38.1%
viability, T/C [25]: 35.9%
viability, T/C [26]: 28%
viability, T/C [27]: 22.2%
viability, T/C [28]: 17.4%
viability, T/C [29]: 17.8%
viability, T/C [30]: 15%
viability, T/C [31]: 30.7%
viability, T/C [32]: 23%
viability, T/C [33]: 19.6%
viability, T/C [34]: 14%
viability, T/C [35]: 15.3%
viability, T/C [36]: 15.7%

CC(=O)O[C@H]1C(=O)[C@@]2(C)[C@H]([C@H](OC(=O)c3ccccc3)[C@]3(O)C[C@H](OC(=O)[C@H](O)[C@@H](NC(=O)c4ccccc4)c4ccccc4)C(C)=C1C3(C)C)[C@]1(OC(C)=O)CO[C@@H]1C[C@@H]2O + Cc1cnc(CNC(=O)c2c(=O)c3ccc(N4CCCN(C)CC4)nc3n3c2sc2ccccc23)cn1
IC50 (second compound 0.0316 µM): > 10000 nM
IC50 (second compound 0.1 µM): > 10000 nM
IC50 (second compound 0.316 µM): > 10000 nM
IC50 (second compound 1 µM): > 10000 nM
IC50 (second compound 3.16 µM): > 10000 nM
IC50 (second compound 10 µM): > 10000 nM
viability, T/C [1]: 70%
viability, T/C [2]: 49.9%
viability, T/C [3]: 53.5%
viability, T/C [4]: 43%
viability, T/C [5]: 52.1%
viability, T/C [6]: 52.8%
viability, T/C [7]: 78.2%
viability, T/C [8]: 54.7%
viability, T/C [9]: 61.6%
viability, T/C [10]: 45.4%
viability, T/C [11]: 60.9%
viability, T/C [12]: 59.7%
viability, T/C [13]: 74.3%
viability, T/C [14]: 61.9%
viability, T/C [15]: 61.5%
viability, T/C [16]: 68.1%
viability, T/C [17]: 64.2%
viability, T/C [18]: 62.1%
viability, T/C [19]: 65%
viability, T/C [20]: 63.5%
viability, T/C [21]: 61%
viability, T/C [22]: 67.3%
viability, T/C [23]: 80.5%
viability, T/C [24]: 70.1%
viability, T/C [25]: 57%
viability, T/C [26]: 66.5%
viability, T/C [27]: 63.6%
viability, T/C [28]: 58.4%
viability, T/C [29]: 71.6%
viability, T/C [30]: 74.1%
viability, T/C [31]: 61.2%
viability, T/C [32]: 50.1%
viability, T/C [33]: 55.8%
viability, T/C [34]: 58.4%
viability, T/C [35]: 60.6%
viability, T/C [36]: 52.3%

CCc1c2c(nc3ccc(O)cc13)-c1cc3c(c(=O)n1C2)COC(=O)[C@]3(O)CC + Cc1[nH]c2ccc(F)cc2c1-c1nc2c3cccnc3c3ncccc3c2[nH]1
IC50 (second compound 0.0316 µM): 5.58 nM
IC50 (second compound 0.1 µM): 6.14 nM
IC50 (second compound 0.316 µM): 5.57 nM
IC50 (second compound 1 µM): 3.44 nM
IC50 (second compound 3.16 µM): < 0.999 nM
IC50 (second compound 10 µM): < 0.999 nM
viability, T/C (second compound 0.0316 µM, first compound 0.000999 µM): 85.3%
viability, T/C (second compound 0.0316 µM, first compound 0.00316 µM): 54.5%
viability, T/C (second compound 0.0316 µM, first compound 0.00999 µM): 44.7%
viability, T/C [1]: 27.3%
viability, T/C (second compound 0.0316 µM, first compound 0.0999 µM): 15%
viability, T/C [3]: 9.55%
viability, T/C (second compound 0.1 µM, first compound 0.000999 µM): 92.8%
viability, T/C (second compound 0.1 µM, first compound 0.00316 µM): 60.4%
viability, T/C (second compound 0.1 µM, first compound 0.00999 µM): 45%
viability, T/C [7]: 22.2%
viability, T/C (second compound 0.1 µM, first compound 0.0999 µM): 14.7%
viability, T/C [9]: 9.29%
viability, T/C (second compound 0.316 µM, first compound 0.000999 µM): 83.6%
viability, T/C (second compound 0.316 µM, first compound 0.00316 µM): 60.9%
viability, T/C (second compound 0.316 µM, first compound 0.00999 µM): 38.2%
viability, T/C [13]: 26.4%
viability, T/C (second compound 0.316 µM, first compound 0.0999 µM): 18.1%
viability, T/C [15]: 11.1%
viability, T/C (second compound 1 µM, first compound 0.000999 µM): 70.7%
viability, T/C (second compound 1 µM, first compound 0.00316 µM): 51.1%
viability, T/C (second compound 1 µM, first compound 0.00999 µM): 34.9%
viability, T/C [19]: 23.9%
viability, T/C (second compound 1 µM, first compound 0.0999 µM): 16.9%
viability, T/C [21]: 8.25%
viability, T/C (second compound 3.16 µM, first compound 0.000999 µM): 34.4%
viability, T/C (second compound 3.16 µM, first compound 0.00316 µM): 20.1%
viability, T/C (second compound 3.16 µM, first compound 0.00999 µM): 15.9%
viability, T/C [25]: 9.11%
viability, T/C (second compound 3.16 µM, first compound 0.0999 µM): 7.06%
viability, T/C [27]: 4.83%
viability, T/C (second compound 10 µM, first compound 0.000999 µM): 26%
viability, T/C (second compound 10 µM, first compound 0.00316 µM): 17.6%
viability, T/C (second compound 10 µM, first compound 0.00999 µM): 13.1%
viability, T/C [31]: 7.08%
viability, T/C (second compound 10 µM, first compound 0.0999 µM): 6.95%
viability, T/C [33]: 5.09%
